Entries after “also recorded” stand apart in the source; their conditions may differ.
Experiments:
[1] = tested on: mouse macrophages RAW264.7; experiment: effect on proliferation activity of mouse macrophages RAW264.7; type: cell-based; details: 80 μM; n=3; FIG. 4
[2] = tested on: acute IBD model induced by 5% DSS; experiment: DSS-induced mouse in vivo model of IBD; design: species or system C57BL/6 mice; details: tail vein 5, 2.5, 1.25 mg/kg, 4 days
Method: Female SPF-grade C57BL/6 mice each with an age of 6 to 8 weeks were subjected to adaptive feeding for 3-7 days, and then fed with 5% aqueous solution of DSS in a free water-drinking manner (day0). The original aqueous solution of DSS was replaced with a fresh aqueous solution of DSS every 2 days. After the mice freely drank the aqueous solution of DSS for 7 days (day7), they were fed with fresh purified water. After 4 days of modeling, medicament was administered on the 5th day of modeling. Animals were administered via tail veins with 5 mg/kg, 2.5 mg/kg, and 1.25 mg/kg of the medicament for treatment. The animals were administered with the medicament for 4 continuous days, and then observed for 1 day. The experiments were terminated 24 h after the last administration.
Detection indexes: the weight of each group of animals was observed and recorded every day, and feces of each animal were collected to detect occult blood in the feces. If obvious blood in the feces cannot be determined, an occult blood detection kit was used for confirming the occult blood, and the result was recorded on an experimental record paper and photographed. When the experiments ended, animal serum was collected to detect the expression of IL-6 in the blood. At the same time, the fecal traits, occult blood, and weight change rate of each animal were scored, and the scores were added to give a DAI score for the animal. Colorectal tissue samples of the animals were collected for the subsequent pathological detection and detection of MPO in the tissue.

[3] = tested on: IBD model induced by 2.5% TNBS; experiment: TNBS-induced rat in vivo model of IBD; design: species or system SD rats; details: 6 days; for injuries of colorectal ulcers (anatomical and pathological HE): FIGS. 20 and 21
Method: Test method: female SPF-grade SD rats each with a weight of 180-200 g were subjected to adaptive feeding for 5-7 days, and then started to be modeled. At the time of modeling, the rats were anesthetized, a pre-labeled cat catheter was inserted through the anus into the colon for 8 cm, 250 μL of 2.5% (wt/vol) TNBS solution was slowly injected into the cavity of the colon, the rat was inverted for 1 min, and then the catheter was slowly removed from the intestine. The rat was hold with its head down towards for 1 min and then put back to a cage. Rats in a blank group were administered with the same volume of normal saline. On the second day of modeling, i.e., D1, the medicament was administered through intragastric administration for 6 continuous days.
Detection indexes: the weight of each group of animals was observed and recorded every day, and feces of each animal were collected at the beginning of experiments to detect occult blood in the feces. If obvious blood in the feces cannot be determined, an occult blood detection kit was used for confirming the occult blood, and the result was recorded on an experimental record paper and photographed. After the end of the experiments, the fecal traits, occult blood, and weight change rate of each animal were scored, and the scores were added to give a DAI score for each animal. Colorectal tissue samples of the animals were collected and a wet weight was weighted for the subsequent pathological detection.

[4] = acute toxicity, single oral dose; type: in vivo; details: both sexes, SD, rat, in vivo, po; single intragastric administration; read-out: MTD (tolerance to acute toxicity of a single dosage)
Source text: Trial method: 30 SD rats, half male and half female, were used. The average weight was 160-200 g for female rats and 180-220 g for male rats when grouped. An individual weight should be within ±20% of the average weight. Before the test, animals needed to accommodate to the environment for at least 5 days, and healthy rats (female rats should be not pregnant) were selected as test animals. Matter detected during the accommodation period mainly was: whether the rats were consistent with quality indexes required in the order; detection of general conditions; and whether the weight was within the weight range required by the test. Unqualified abnormal animals were excluded from the test. A single dosage was orally administered to rats at a low, medium, or high dose. […] A control group was set with the oral administration of the same volume of solvent.
The rats were observed about 0-2 h and 4-6 h after each administration. If a toxicity symptom occurs, the rats may be observed more times. (2) Gross anatomical observation: on the 14th day of the test, all surviving rats in each group were dissected and observed, and for administration sites and gross dissection, abnormal organs and tissues which were observed and found to be potentially related to test samples were photographed and recorded. (3) Disposal of dying animals: status of rats and observation time were recorded, and their weights were measured. (4) Disposal of dead animals: the time of death or when a rat was found dead were recorded. The rat was measured for weight before quickly dissected for gross observation and speculated for a cause of death.

[5] = tested on: PGE2 secreted by mouse macrophages RAW264.7 induced by LPS; experiment: PGE2 secreted by LPS-induced RAW264.7 macrophages (ELISA); type: cell-based; details: for PGE2: LPS alone 1154.90 ± 84.20, control −407.37 ± 57.67
Method: (§1) Effects of myricanol derivatives on the expression of inflammatory factors such as IL-6, TNF-α, PEG2 secreted by a mouse macrophage cell strain RAW 264.7 induced by bacterial lipopolysaccharide (hereinafter referred to as LPS) stimulus: A pre-prepared cell suspension was inoculated in a 96-well plate at 15000 cells/well and 100 μl/well and cultured overnight in an incubator with 5% CO2 at 37° C. At 80% cell confluence, the original culture medium was discarded, and each well was added with 100 μl of prepared drug solution to be tested with a different concentration, cultured for 1 h, and then added with a LPS solution, where the final concentration of LPS in the culture system was 100 ng/mL. Each concentration was set with 3 parallel wells, and a cell control group (no drug and no solvent) and a blank medium control group (no cells, a well for zero adjustment) were set. They were cultured for another 24 h. Cell culture supernatants were aspirated, and an R&D ELISA detection kit (M6000B; MTA00B; VAL601) was used for detecting the expression of the inflammatory factors such as IL-6, TNF-α, and PEG2 in each group. Cell proteins were collected, and a […] method was used for detecting COX-2 protein expression in each group.

[6] = tested on: COX2 protein expressed by mouse macrophages RAW264.7; experiment: COX2 protein expression in LPS-induced RAW264.7 macrophages (blot); type: cell-based; details: FIG. 8
Method: as §1

Q: Which “effect on proliferation activity of mouse macrophages RAW264.7” value [1] does the source give for `COc1c2cc(c(O)c1OC)CCCCC(OS(=O)(=O)O)CCc1ccc(O)c-2c1` (centres unmarked) [compound H, 11-sulfonyloxy myricanol] here?
A: no significant effects

Q: And the “weight change rate (weight loss trend)” value ([2]; FIG. 10 (5 mg/kg vs 5% DSS p<0.01))?
A: slowing the weight loss trend

Q: What about the “level of IL-6 protein in serum” value ([2]; FIG. 11) of the same compound?
A: significant anti-inflammatory effect

Q: And the DAI score ([2]; FIG. 12)?
A: significant effect of reducing the DAI scores

Q: And the “colorectal pathology (injuries of intestinal mucosa)” value ([2]; FIG. 13)?
A: significant effect of repairing injuries of intestinal mucosa

Q: And the “colorectal MPO (oxidative injuries)” value ([2]; FIG. 14)?
A: a certain effect of improving oxidative injuries

Q: And the “colorectal wet weight (edema)” value ([3]; 12.5 mg/kg intragastric, no statistical difference, FIG. 15)?
A: trend of reducing the edema

Q: What about the “area of colorectal ulcers” value ([3]; oral 12.5 mg/kg, FIG. 16) of the same compound?
A: significantly reducing the area of colorectal ulcers

Q: What about the “area of colorectal ulcers, efficacy compared with 5-ASA” value ([3]; oral 12.5 mg/kg, FIG. 16) of the same compound?
A: slightly better efficacy than 5-aminosalicylic acid (5-ASA)

Q: What about the “colorectal inflammation, efficacy compared with 5-ASA” value ([3]; oral 12.5 mg/kg, FIG. 17) of the same compound?
A: substantially same efficacy as 5-aminosalicylic acid (5-ASA)

Q: What about the “inflammation score of colorectal pathological HE” value ([3]; oral 12.5 mg/kg, FIG. 17, 12.5 mg/kg) of the same compound?
A: significantly reducing the level of colorectal inflammation; also recorded: significantly improving the score of colorectal inflammation

Q: And the “colorectal total injuries, efficacy compared with 5-ASA” value ([3]; oral 12.5 mg/kg, FIG. 18)?
A: substantially same efficacy as 5-aminosalicylic acid (5-ASA)

Q: And the “score of total injuries of colorectal pathological HE” value ([3]; oral 12.5 mg/kg, FIG. 18, 12.5 mg/kg)?
A: significantly reducing the level of colorectal total injures; also recorded: significantly reducing the degree of overall colorectal injuries

Q: What about the “injury score of colorectal ulcers, efficacy compared with 5-ASA” value ([3]; oral 12.5 mg/kg, FIG. 19) of the same compound?
A: slightly better efficacy than 5-aminosalicylic acid (5-ASA)

Q: And the “score of ulcerative injuries of colorectal pathological HE” value ([3]; oral 12.5 mg/kg, FIG. 19, 12.5 mg/kg)?
A: significantly reducing the injury score of colorectal ulcers; also recorded: significantly reducing the severity of injuries

Q: What about the “injuries of colorectal ulcers (anatomical and pathological HE)” value ([3]; oral 12.5 mg/kg) of the same compound?
A: effect of reducing injuries of colorectal ulcers

Q: And the “injuries of colorectal ulcers (anatomical and pathological HE)” value ([3]; oral 25 mg/kg)?
A: effect of reducing injuries of colorectal ulcers

Q: What about the MTD at 14 days [4] of the same compound?
A: > 1500 mg/kg

Q: And the “dose dependence of the activity for inhibiting PGE2” value ([5]; FIG. 9)?
A: well dose-dependent

Q: And the “inhibition of PGE2 secreted by RAW264.7 induced by LPS” value ([5]; LPS 100 ng/mL, 24 h, FIGS. 7 and 9)?
A: significant effect of inhibiting PGE2; also recorded: strong ability to inhibit

Q: And the PGE2 ([5]; LPS + 10 μM)?
A: 804.30 ± 18.46 pg/mL

Q: What about the PGE2 ([5]; LPS + 20 μM) of the same compound?
A: 604.66 ± 97.52 pg/mL

Q: And the PGE2 ([5]; LPS + 30 μM)?
A: 448.16 ± 55.26 pg/mL

Q: What about the PGE2 ([5]; LPS + 40 μM) of the same compound?
A: 289.30 ± 109.41 pg/mL

Q: And the PGE2 ([5]; LPS + 60 μM)?
A: -82.01 ± 357.30 pg/mL

Q: What about the PGE2 ([5]; LPS + 80 μM) of the same compound?
A: -338.14 ± 138.40 pg/mL

Q: And the “PGE2 inhibition compared with myricanol” value ([5]; dose of 20 μM, FIG. 9)?
A: better inhabitation effect than myricanol

Q: And the “COX2 protein expression inhibition compared with myricanol” value [6]?
A: better inhabitation effects than myricanol

Q: And the “inhibition of protein expression of IBD-related COX2” value [6]?
A: can inhibit
